The relative IC50 is the concentration at the midpoint between the plateaus of the fitted inhibition curve.

We go through 16 compounds from the supplement of paper PMC5908809.

Experiment [1] concerns DERL-7 (IL-2 2.5 ng/mL). As to the kind of experiment: relative IC50 (inflection point of fitted viability curve, relative to fitted max inhibition); higher = less sensitive. To be noted: 72 h. The procedure:
(§1)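 Drug sensitivity and resistance testing: 5 concentrations over a 10,000-fold range, 72 h at 37 °C, viability by CellTiter-Glo normalised to DMSO and benzethonium chloride controls. IC50 is the inflection point of a logistic fit (min fixed at 0, max fitted), so it is relative to the fitted maximal inhibition. Kept only where fitted max inhibition is at least 50%.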

For experiment [2], the system named is NK-92 (IL-2 2.5 ng/mL). Described as above. To be noted: 72 h. The procedure:
as §1

For experiment [3], the system named is NKL (IL-2 2.5 ng/mL). The experiment is described as above. To be noted: 72 h. On the procedure:
as §1

In experiment [4] the test system is KAI3 (IL-2 2.5 ng/mL). Described as above. To be noted: 72 h. On the procedure:
as §1

Experiment [5] has as its system KHYG-1 (IL-2 2.5 ng/mL). Described as above. To be noted: 72 h. The procedure:
as §1

For experiment [6], the system named is normal primary NK cells, pool 2 (3 donors) (IL-2 2.5 ng/mL). The description is as above. To be noted: 72 h. On the procedure: as §1
Experiment [7] has as its system IMC-1 (IL-2 20 ng/mL). The description is as above. To be noted: 72 h. On the procedure:
as §1

The test system of experiment [8] is normal NK cells expanded with K562-aAPC. As to the kind of experiment: percent inhibition of viability; higher = more inhibition. The settings on record: 72 h, IL-2 2.5 ng/mL. On the procedure:
(§2)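 Drug sensitivity and resistance testing on K562-aAPC-expanded normal NK cells: 5 concentrations (10-fold steps over a 10,000-fold range), 72 h at 37 °C, viability by CellTiter-Glo normalised to DMSO and benzethonium chloride controls; DSS from the fitted curve.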

The subject of experiment [9] is SNK-6 (IL-2 2.5 ng/mL). The description is as above. To be noted: 72 h.
Experiment [10] deals with DERL-7 (IL-2 2.5 ng/mL). The description is as above. The settings on record: 72 h.
Experiment [11] concerns IMC-1 (IL-2 20 ng/mL). The experiment is described as above. The settings on record: 72 h.
In experiment [12] the test system is normal primary NK cells, pool 1 (3 donors), resting (IL-2 0 ng/mL). Described as above. To be noted: 72 h.
The test system of experiment [13] is normal primary NK cells, pool 1 (3 donors) (IL-2 2.5 ng/mL). The experiment is described as above. To be noted: 72 h.
Experiment [14] concerns NK-92 (IL-2 2.5 ng/mL). Described as above. To be noted: 72 h.
Experiment [15] concerns normal primary NK cells, pool 2 (3 donors) (IL-2 2.5 ng/mL). The experiment is described as above. To be noted: 72 h.
Experiment [16] relates to NKL (IL-2 2.5 ng/mL). The experiment is described as above. To be noted: 72 h.
Experiment [17] has as its system KAI3 (IL-2 2.5 ng/mL). The description is as above. To be noted: 72 h.
In experiment [18] the test system is YT (IL-2 2.5 ng/mL). The experiment is described as above. To be noted: 72 h.
In experiment [19] the test system is NK-YS (IL-2 2.5 ng/mL). The description is as above. To be noted: 72 h.
The subject of experiment [20] is KHYG-1 (IL-2 2.5 ng/mL). The experiment is described as above. The settings on record: 72 h.
The test system of experiment [21] is normal primary NK cells, pool 3 (3 donors) (IL-2 2.5 ng/mL). The description is as above. To be noted: 72 h.
Experiment [22] concerns SNK-6 (IL-2 2.5 ng/mL). As to the kind of experiment: drug sensitivity score (DSS) (DSS units); higher = more sensitive; extreme values may be limits of the assay. To be noted: 72 h.
For experiment [23], the system named is DERL-7 (IL-2 2.5 ng/mL). The experiment is described as above. To be noted: 72 h.
Experiment [24] deals with IMC-1 (IL-2 20 ng/mL). The experiment is described as above. To be noted: 72 h.
Experiment [25] deals with normal primary NK cells, pool 1 (3 donors), resting (IL-2 0 ng/mL). The experiment is described as above. The settings on record: 72 h.
The subject of experiment [26] is normal primary NK cells, pool 1 (3 donors) (IL-2 2.5 ng/mL). The description is as above. The settings on record: 72 h.
Experiment [27] deals with NK-92 (IL-2 2.5 ng/mL). The experiment is described as above. The settings on record: 72 h.
Experiment [28] concerns normal primary NK cells, pool 2 (3 donors) (IL-2 2.5 ng/mL). The description is as above. The settings on record: 72 h.
Experiment [29] deals with NKL (IL-2 2.5 ng/mL). The experiment is described as above. To be noted: 72 h.
Experiment [30] has as its system KAI3 (IL-2 2.5 ng/mL). The experiment is described as above. To be noted: 72 h.
Experiment [31] has as its system YT (IL-2 2.5 ng/mL). Described as above. The settings on record: 72 h.
The subject of experiment [32] is NK-YS (IL-2 2.5 ng/mL). The experiment is described as above. The settings on record: 72 h.
In experiment [33] the test system is KHYG-1 (IL-2 2.5 ng/mL). Described as above. The settings on record: 72 h.
Experiment [34] relates to normal primary NK cells, pool 3 (3 donors) (IL-2 2.5 ng/mL). The experiment is described as above. The settings on record: 72 h.
The subject of experiment [35] is normal NK cells expanded with K562-aAPC. Described as above. The settings on record: 72 h; IL-2 2.5 ng/mL. The procedure:
as §2

With `CCn1c(C(=O)N(C2CC2)C2CC2)cc2c3c(ncn3C)c(Nc3cc(C)n(C)n3)nc21`, the “relative IC50” value was found to be 1630 nM in [1]; 1980 nM in experiment [2]; 797 nM in experiment [3]; 180 nM in experiment [4]; 1820 nM in experiment [5].

As for `COc1ccc2c(OCc3nnc4ccc(-c5ccccc5)nn34)ccnc2c1` [AMG-208], the “relative IC50” value in experiment [1] is more than 2500 nM.

On to `N#CC1(c2ccc(NC(=O)c3cccnc3NCc3ccncc3)cc2)CCCC1` [Apatinib], for which the entries for the “relative IC50” value in experiment [2], in experiment [6] and in experiment [3] were 1710 nM, more than 10000 nM and more than 10000 nM, respectively.

For the compound `C=C(c1ccc(C(=O)O)cc1)c1cc2c(cc1C)C(C)(C)CCC2(C)C` [Bexarotene], the “relative IC50” value in experiment [3] was 208 nM.

On to `C[C@H](Nc1ncnc2nc[nH]c12)c1cc2cccc(Cl)c2c(=O)n1-c1ccccc1` [Duvelisib], for which the “relative IC50” value in experiment [1] was 44.5 nM.

For the compound `COc1cc(Nc2ncc(F)c(Nc3ccc4c(n3)N(COP(=O)(O)O)C(=O)C(C)(C)O4)n2)cc(OC)c1OC` [Fostamatinib], the “relative IC50” value in experiment [7] is more than 2500 nM.

On to `CC(C)NC[C@@H](C(=O)N1CCN(c2ncnc3c2[C@H](C)C[C@H]3O)CC1)c1ccc(Cl)cc1` [GDC-0068], for which, in experiment [1], the “relative IC50” value amounted to 1030 nM.

With `O=C(NOCCO)c1ccc2cncn2c1Nc1ccc(I)cc1F` [GDC-0623], the “relative IC50” value is more than 2500 nM in [7], more than 2500 nM in experiment [2], 22.1 nM in [3] and 25.6 nM in [5].

`NC(=O)NO` [Hydroxyurea]: the “relative IC50” value in [4] turned out to be 2630 nM.

With `Nc1nc(OCc2cc(Br)cs2)c2[nH]cnc2n1` [Lomeguatrib], the “relative IC50” value in experiment [3] was 1900 nM.

As for `NC1(c2ccc(-c3nc4ccn5c(=O)[nH]nc5c4cc3-c3ccccc3)cc2)CCC1` [MK-2206], in [1], the “relative IC50” value was 103 nM.

For the compound `O=C(Nc1cc(Cl)cc2c1[nH]c1cnccc12)c1cccnc1` [PS-1145], in experiment [4], the “relative IC50” value was found to be 1650 nM.

As for `CN1CCN(c2nc(C3=C(c4c[nH]c5ccccc45)C(=O)NC3=O)c3ccccc3n2)CC1` [Sotrastaurin], the “relative IC50” value in [1] was found to be 1080 nM; in [2], 1690 nM; in experiment [3], 499 nM; in experiment [4] it was 1620 nM; in experiment [5] it was 1800 nM.

Take `CCN(CC)CCNC(=O)c1c(C)[nH]c(/C=C2\C(=O)Nc3ccc(F)cc32)c1C` [Sunitinib]: the “relative IC50” value in experiment [7], in experiment [2], in experiment [3] and in experiment [5] was more than 1000 nM each time.

Turning to `O=c1sn(-c2cccc3ccccc23)c(=O)n1Cc1ccccc1` [Tideglusib], the “relative IC50” value in experiment [2] is more than 3000 nM.

`NC(=O)c1cccc(-c2cccc(OC(=O)NC3CCCCC3)c2)c1` [URB597] (max concentration tested 1000 nM): the “percent inhibition of viability” value in experiment [8] (0.1 nM) is -5.77%; in experiment [8] (1 nM), -3.62%; in experiment [8] (10 nM) it was -1%; in experiment [8] (100 nM), 7.42%; in experiment [8] (1000 nM) it was 7.56%; in [9] (0.1 nM) it was -7.3%. Also, the “percent inhibition of viability” value stood at 9.09% in experiment [9] (1 nM); 10.3% in experiment [9] (10 nM); 2.22% in [9] (100 nM); 2.83% in experiment [9] (1000 nM); 11% in [10] (0.1 nM); 4.35% in experiment [10] (1 nM). Besides, the “percent inhibition of viability” value in experiment [10] (10 nM) was 12%; in [10] (100 nM), 5.02%; in [10] (1000 nM) it was 5.08%; in [11] (0.1 nM), -4%; in experiment [11] (1 nM), 4.78%; in [11] (10 nM) it was 2.31%. In addition, the “percent inhibition of viability” value in [11] (100 nM) is 4%; in experiment [11] (1000 nM), 3.07%; in [12] (0.1 nM), -1.65%; in experiment [12] (1 nM), -9.18%; in [12] (10 nM), 1.01%; in experiment [12] (100 nM), -15.8%. Further, the “percent inhibition of viability” value in [12] (1000 nM) is -6.01%; in experiment [13] (0.1 nM), 5.21%; in experiment [13] (1 nM), -3.54%; in experiment [13] (10 nM), 1.12%; in [13] (100 nM) it was -15.5%; in experiment [13] (1000 nM) it was -7.59%. In addition, the “percent inhibition of viability” value is 1.97% in experiment [14] (0.1 nM); 3.05% in experiment [14] (1 nM); 12.2% in experiment [14] (10 nM); -3.48% in experiment [14] (100 nM); 7.28% in experiment [14] (1000 nM); -11.5% in [15] (0.1 nM). Besides, the “percent inhibition of viability” value in experiment [15] (1 nM) was -5.88%; in experiment [15] (10 nM) it was 15.1%; in experiment [15] (100 nM), -7.18%; in experiment [15] (1000 nM), 8.87%; in experiment [16] (0.1 nM), 3.64%; in [16] (1 nM) it was 0.02%. The “percent inhibition of viability” value in experiment [16] (10 nM) was 13.3%; in experiment [16] (100 nM), 15.1%; in [16] (1000 nM) it was 14.2%; in [17] (0.1 nM), -3.62%; in [17] (1 nM) it was -6.19%; in experiment [17] (10 nM), -2.65%. Also, the “percent inhibition of viability” value in experiment [17] (100 nM) was -2.84%; in experiment [17] (1000 nM), 16.1%; in experiment [18] (0.1 nM) it was 1.76%; in [18] (1 nM), 2.28%; in experiment [18] (10 nM) it was 2.53%; in [18] (100 nM), 3.49%. The “percent inhibition of viability” value was 9.4% in experiment [18] (1000 nM); -1.3% in [19] (0.1 nM); 0.73% in experiment [19] (1 nM); 8.14% in [19] (10 nM); 5.17% in experiment [19] (100 nM); 8.51% in experiment [19] (1000 nM). Besides, the “percent inhibition of viability” value in [20] (0.1 nM) was -1.98%; in experiment [20] (1 nM), 3.31%; in experiment [20] (10 nM), 2.01%; in experiment [20] (100 nM), 2.83%; in experiment [20] (1000 nM), 7.66%; in experiment [21] (0.1 nM), -10.1%. The “percent inhibition of viability” value in experiment [21] (1 nM) is -1.33%; in experiment [21] (10 nM) it was 5.88%; in experiment [21] (100 nM), -9.83%; in [21] (1000 nM), 6.07%. Besides, the drug sensitivity score in experiment [22], in experiment [23], in experiment [24], in [25], in [26] and in experiment [27] was 0 each time. The drug sensitivity score in experiment [28] was determined as 0; in experiment [29], 2.41; in experiment [30], 0.21; in experiment [31], 0; in experiment [32], 0; in experiment [33] it was 0. Moreover, the drug sensitivity score in experiment [34] and in [35] was 0 in each case.
